Our source for the IC50 and inhibition values is ChEMBL document CHEMBL3351982, “Microwave-assisted synthesis and biological evaluation of 3,4-diaryl maleic anhydride/N-substituted maleimide derivatives as combretastatin A-4 analogues” (Bioorg Med Chem Lett, 2015).

Some results are limits rather than exact numbers.

The subject of one experiment is KB. In words: Cytotoxicity against human KB cells assessed as cell growth inhibition after 72 hrs by MTT assay. The class given is functional, cell-based.
A short description of experiment [1]: Cytotoxicity against human HT1080 cells assessed as cell growth inhibition after 72 hrs by MTT assay. The class given is functional, cell-based. The conditions noted are these: HT-1080, 72 h.
Experiment [2] can be described thus: Cytotoxicity against human SGC7901 cells assessed as cell growth inhibition after 72 hrs by MTT assay. Type of experiment: functional, cell-based. The conditions noted are these: SGC-7901, 72 h. (In general: Tetrazolium dyes change colour on reduction, which living cells bring about.)
In the next experiment the target is Tubulin (Bos taurus, UniProt Q6B856+Q862L2+Q862F3). In words: (§1) Inhibition of bovine brain tubulin polymerization.
In another experiment the target is Tubulin (Bos taurus) (UniProt Q6B856+Q862L2+Q862F3). The description is as §1.

By IC50 is commonly meant the concentration needed to halve the response being measured.

With `COc1ccc(C2=C(c3cc(OC)c(OC)c(OC)c3)C(=O)OC2=O)cc1O`, the figures for the IC50 (with KB; in experiment [1]; in experiment [2]) were over 30 µM, over 30 µM and 27.9 µM, respectively.
Turning to `COc1ccc(C2=C(c3cc(OC)c(OC)c(OC)c3)C(=O)N(OC)C2=O)cc1O`, the IC50 (with KB; in experiment [1]; in experiment [2]) was over 30 µM in each case.
For `COc1ccc(C2=C(c3cc(OC)c(OC)c(OC)c3)C(=O)N(O)C2=O)cc1O`, the IC50 in the experiment on KB is 6.7 µM; in experiment [1] it was 2.4 µM; in experiment [2], 4.5 µM.
With `COc1ccc(C2=C(c3cc(OC)c(OC)c(OC)c3)C(=O)N(O)C2=O)cc1N`, the IC50 is 1.1 µM with KB, 0.65 µM in experiment [1], 3 µM against Tubulin and 1.3 µM in experiment [2]. For the same molecule, the inhibition result at Tubulin (Bos taurus) was “Dose-dependent effect”.
Regarding `COc1ccc(/C=C\c2cc(OC)c(OC)c(OC)c2)cc1O` [COMBRETASTATIN A4], the half-inhibitory concentration (IC50) in experiment [1] was found to be 0.008 µM; in experiment [2] it was 0.028 µM.
With `COc1ccc(C2=C(c3cc(OC)c(OC)c(OC)c3)C(=O)N(OC)C2=O)cc1`, the IC50 (in the experiment on KB; in experiment [1]; in experiment [2]) was over 30 µM throughout.
Consider `COc1cc(C2=C(c3ccc4ccccc4c3)C(=O)N(C)C2=O)cc(OC)c1OC`, for which the IC50 in the experiment with KB is 16.7 µM; in experiment [1], 22.5 µM; in experiment [2], 12.3 µM.
`COc1ccc(C2=C(c3cc(OC)c(OC)c(OC)c3)C(=O)OC2=O)cc1`: the IC50 in the experiment on KB was found to be 10.8 µM; in experiment [1], 16.5 µM; in experiment [2], 13.2 µM.
The corresponding values for `COc1ccc(C2=C(c3cc(OC)c(OC)c(OC)c3)C(=O)N(C)C2=O)cc1` are 14.2 µM, 15.6 µM and 12.3 µM.
The like results for `COc1ccc(C2=C(c3cc(OC)c(OC)c(OC)c3)C(=O)N(OC)C2=O)cc1N` were, in that order, over 30 µM, over 30 µM and over 30 µM.
For the molecule `COc1cc(C2=C(c3ccc4ccccc4c3)C(=O)N(OC)C2=O)cc(OC)c1OC`, the 50% inhibitory concentration (IC50) (in the experiment with KB; in experiment [1]; in experiment [2]) was over 30 µM each time.
On to `COc1ccc(C2=C(c3cc(OC)c(OC)c(OC)c3)C(=O)OC2=O)cc1N`, for which the values for the half-maximal inhibitory concentration (IC50) (in the experiment with KB; in experiment [1]; in experiment [2]) were 2.3 µM, 2.4 µM and 1.6 µM, respectively.
The like results for `COc1ccc(C2=C(c3cc(OC)c(OC)c(OC)c3)C(=O)N(O)C2=O)cc1` were, in that order, 5.6 µM, 4.1 µM and 5.3 µM.
The like results for `COc1cc(C2=C(c3ccc4ccccc4c3)C(=O)N(O)C2=O)cc(OC)c1OC` were, in that order, 10.1 µM, 6.4 µM and 16.5 µM.
The corresponding values for `COc1ccc(C2=C(c3cc(OC)c(OC)c(OC)c3)C(=O)N(C)C2=O)cc1N` are 1.3 µM, 0.75 µM and 1.5 µM.
`COc1cc(C2=C(c3ccc4ccccc4c3)C(=O)OC2=O)cc(OC)c1OC`: the IC50 (with KB; in experiment [1]; in experiment [2]) was over 30 µM in each case.
For `COc1ccc(C2=C(c3cc(OC)c(OC)c(OC)c3)C(=O)N(C)C2=O)cc1O`, the values for the IC50 (in the experiment with KB; in experiment [1]; in experiment [2]) were 3 µM, 13.3 µM and 2.5 µM, respectively.
